Where “and” joins values, the source holds several entries; their conditions need not be identical. Equal values may be shown once. No end group written: not given here.
Experiments:
[1] = system: guinea-pig taenia coli
Protocol: 2 cm strips of teania coil with intact Auerbach's plexus, but which had been stripped of the mucosa, were suspended in Kreb's solution under 1 g passive tension, and contracted with histamine (1 μM) to induce active tension.

[2] = system: pig tracheal muscle strips; settings: contracted to approximately 30% maximal with carbachol
Protocol: Pig tracheal muscle strips of approximately 2 mm×2 mm in size and with mucosa were prepared by dissecting away overlying cartilage. Strips were suspended in Krebs solution under 1 g passive tension, and contracted to approximately 30% maximal contraction with carbachol (40 μM).

[3] = system: human bronchial epithelium; settings: after amiloride
Protocol: Human airways were obtained from discarded sections of lungs of patients undergoing lobectomy operations at the Royal Melbourne Hospital, Melbourne, Australia usually for lung cancer. The dissection and set up were as described above for the mouse trachea.
(§1) After an equilibration time of 30 min, compounds for testing and drugs to elucidate the mechanism of any changes in Isc to the test compounds were added to either side of the tracheal epithelium (ie to either bath). Compounds used for increasing Isc were PGE2, adenosine 5′-triphosphate (ATP), uridine 5′-triphosphate (UTP) and the PAR1-, PAR2- and PAR4-activating peptides, SFLLRN (SEQ ID NO:1) and SLIGRL (SEQ ID NO:2) and GYPGQY (SEQ ID NO:6), respectively. These stimulants were added cumulatively with controls for any time-dependent tachyphylaxis.

[4] = system: human distal colon
Protocol: Human distal colon strips obtained at bowel resection were suspended at 1 g passive isometric force and contracted with substance P (30 μM) to maintain a steady level of active tension.

[5] = system: rat bronchioles
Excerpt: The right and left main bronchi and their first order branches of specific pathogenfree (SPF) Balb/c mice (15–20 g; either sex), Hartley tricolour guinea-pigs (300–400 g; male) and Sprague-Dawley rats (200–350 g; either sex), all killed by either cervical dislocation or overdosed (i.p.) with sodium pentobarbitone, were cleared of surrounding connective tissue, nerves and blood vessels under a dissecting microscope and placed in cold, carbogenated (95% v/v O2,5% v/v CO2) Krebs solution (Kemp and Cocks, 1997). Human airway preparations (0.5–1 mm in external diameter) were dissected from lungs of cancer patients undergoing thoracotomy at The Royal Melbourne Hospital, Melbourne, Australia. The epithelium was removed from some bronchi either by mechanical abrasion of the luminal surface (guinea-pig) or by brief, gentle intraliminal flushing of the airways with Krebs containing 0.1% v/v Triton-X100 (mouse and rat). In each case, removal of the epithelium was verified histologically in 8 μm formalin-fixed, paraffin sections stained with haemotoxylin and eosin. Ring segments (approximately 2 mm long) of bronchi and bronchioles were mounted in Krebs (37° C.) on stainless steel wires (40 μm) in dual channel (5 ml) Mulvany-Halpern myographs (JP Trading, Aarhus, Denmark) to record changes in isometric force (Kemp and Cocks, 1997). After equilibration at a passive force between 0.2 g and 0.3 g, tissues were contracted to their maximum levels of active force (Fm.),) with acetylcholine (30 μM), thoroughly washed with Krebs and allowed to return to baseline. Various drugs or their vehicles were then added and 30 min later all tissues were contracted to approximately 40% Fmax with titrated concentrations of carbachol (10–500 nM). The L-type voltage-operated Ca^2+ channel inhibitor, nifedipine (0.3 μM) was added to all mouse and rat tissues after obtaining Fmax to control characteristic phasic contractile activity with carbachol.
All cumulative responses (relaxations and contractions) were normalised as percentages of the initial level of active force to carbachol. Results are presented as mean±s.e mean and pEC50 (sensitivity) values were calculated by fitting concentration-response curves to a four parameter logistic function (Kemp and Cocks, 1997) using Graphpad Prism (version 2.0). Statistical comparison of mean pEC50 and maximum response (Rmax) values were compared by two-tailed unpaired Student's t-tests or one way analysis of variance (ANOVA) with Tukey-Kramer's t-tests for multiple comparisons. P<0.05 was accepted as significant. Unless specified, all averaged data are from n>5 experiments.

[6] = system: mouse trachea
Excerpt: Mice were killed by a lethal overdose of sodium pentobarbitone and the tracheae rapidly excised. The trachea was opened longitudinally through the ventral cartilage rings to make a fiat sheet. Each sheet of trachea was mounted between two perspex chambers so that the mucosal (luminal) and submucosal and bathed with warmed, oxygenated Krebs' solution, independently on each side. Electrodes in the chambers allowed recordings of transepithelial potential difference using an amplifier. The tissue was voltage clamped at 0 mV by passing a current from the amplifier via another set of electrodes in the chambers. The amount of current required to maintain voltage at 0 mV is defined as the short circuit current (Isc) and is conventionally used as a measure of all ionic fluxes across the preparation.
as §1

[7] = system: mice challenged with bacterial lipopolysaccharide; settings: 2 mg/kg or 20 mg/kg intranasal before LPS
Protocol: Mice were challenged with bacterial lipopolysaccharide (LPS; 10 μg/mouse) via intranasal administration under light halothane aneasthesia.
Three hours after receiving LPS, the mice were killed via an intraperitoneal injection of sodium pentabarbitone and the lungs were canulated and lavaged with 4×0.5 ml washes of phosphate buffered saline. The total number of cells retrieved by this procedure was determined with a haemocytometer. Differential counts of individual cell types were performed on cytospin preparations of the lavage fluid, stained with the conventional May-Grunwald/Giemsa blood stain. The total number of neutrophils in each sample was then calculated from the proportion of neutrophils in the cytospin preparations, as a proportion of the total number of cells retrieved.

[8] = system: anaesthetised rat
Protocol: Male Sprague-Dawley rats (8 weeks) were anaesthetised (xylazine 10 mg/kg, ketamine 100 mg/kg and 50 mg/kg each 30 min thereafter, i.p.) and cannulae were placed in the trachea, carotid artery and jugular vein. Spontaneous breathing was stopped by an intravenous injection of pancuronium bromide (0.4 mg/kg and 0.2 mg/kg each 30 min thereafter) and rats were ventilated (tidal volume 8 ml/kg at 90 breaths/min, SAR-830 ventilator, CWE Inc., Ardmore, USA). Breath-to-breath measurement of airway resistance (RD and dynamic compliance (Cdyn) were calculated from flow and transpulmonary pressure recordings (PMS800, Mumed, London, UK). Flow was measured over the tracheal cannula (Fleisch pneumotachograph, Lausanne, Switzerland) and transpulmonary pressure was measured with a differential pressure transducer, one end being connected to the outlet of the tracheal cannula, the other to an air-filled cannula inserted in the oesophagus. A rectal probe was used to monitor body temperature. Serotonin (5-HT; 0.3 mg/kg i.v.) was administered as a bolus dose at 5 min intervals until reproducible changes in RL and Cdyn were obtained. Prior to each 5-HT challenge, lungs were hyperinflated once (by delivering twice the tidal volume) to prevent and reverse atelecasis. […]

Substance	relaxation in presence of apamin ([1]; apamin (100 μM))	relaxation of taenia coli ([1]; contracted with histamine (1 μM))	relaxation of pig tracheal strip [2]	change in Isc [3]	response of human distal colon [4]	Rmax [5] [%]	pEC50 [5]	increase in Isc in presence of indomethacin ([6]; cyclooxygenase inhibitor indomethacin)	change in Isc ([6]; luminally applied)	effect on LPS-induced neutrophil infiltration into the lungs [7]	inhibition of 5-HT-induced changes in airway resistance (RL) and dynamic compliance (Cdyn) ([8]; 30 sec aerosol of 0.1 mg/ml solution)	duration of inhibition of bronchoconstriction to 5-HT ([8]; aerosol of 1 mg/ml)	inhibition of bronchoconstriction to 5-HT ([8]; aerosol of 1 mg/ml)
SFLLRN [SFLLRN—NH2]	inhibited	relaxed in response to TRAP in a concentration-dependent manner	slow onset, near maximal relaxation of the tissue comparable in extent to that induced by isoprenaline	increases in Ise	relaxed in an apparently apaminin sensitive manner								
SLIGRL-NH2 [SLIGRL—NH2]						67±5	5.1±0.1 and 5.1±0.01	unaffected	rapid initial rise in Isc usually followed by some degree of recovery until a steady plateau was reached	dose-dependent inhibition of the increase of neutrophil infiltration into the lungs	50–70%	at least 45 min	complete inhibition

From US7256172B1, “Method of treatment and agents useful for same” (The University of Melbourne, priority 1998, dated 2007)
